Measurements as given in ChEMBL document CHEMBL1201862, “PubChem BioAssay data set” (2004).
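Each compound was tested at five concentrations against cells in 96-well plates for 48 hours. GI50 marks 50% less growth.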 Active and inactive are the calls of the source. No stated cut-off is given here; in the data, active = GI50 up to about 1.1 µM and inactive = higher.

Assays:
Test in all cases: NCI-60 cell line screen, 48 h
RXF 393 = tested on: RXF 393
OVCAR-5 = tested on: OVCAR-5
COLO 205 = tested on: COLO 205
MOLT-4 = tested on: MOLT-4
SK-MEL-28 = tested on: SK-MEL-28
ACHN = tested on: ACHN
HOP-92 = tested on: HOP-92
UO-31 = tested on: UO-31
NCI-H460 = tested on: NCI-H460
MCF7 = tested on: MCF7
A549 = tested on: A549
SF-295 = tested on: SF-295
HCC 2998 = tested on: HCC 2998
MDA-MB-435 = tested on: MDA-MB-435
LOX IMVI = tested on: LOX IMVI
CAKI-1 = tested on: CAKI-1
A498 = tested on: A498
SF-268 = tested on: SF-268
HCT-15 = tested on: HCT-15
K562 = tested on: K562
SW-620 = tested on: SW-620
U-251 = tested on: U-251
SF-539 = tested on: SF-539
SK-MEL-5 = tested on: SK-MEL-5
NCI-H23 = tested on: NCI-H23
PC-3 = tested on: PC-3
OVCAR-4 = tested on: OVCAR-4
KM12 = tested on: KM12
Malme-3M = tested on: Malme-3M
BT-549 = tested on: BT-549
HOP-62 = tested on: HOP-62
CCRF-CEM = tested on: CCRF-CEM
NCI/ADR-RES = tested on: NCI/ADR-RES
Hs-578T = tested on: Hs-578T
NCI-H522 = tested on: NCI-H522
TK-10 = tested on: TK-10
HT-29 = tested on: HT-29
786-0 = tested on: 786-0
SNB-19 = tested on: SNB-19
EKVX = tested on: EKVX
SN12C = tested on: SN12C
SK-OV-3 = tested on: SK-OV-3
SNB-75 = tested on: SNB-75
MDA-N = tested on: MDA-N
OVCAR-8 = tested on: OVCAR-8
MDA-MB-231 = tested on: MDA-MB-231
UACC-62 = tested on: UACC-62
DU-145 = tested on: DU-145
HL-60 = tested on: HL-60
NCI-H226 = tested on: NCI-H226
HCT-116 = tested on: HCT-116
UACC-257 = tested on: UACC-257
T47D = tested on: T47D
OVCAR-3 = tested on: OVCAR-3
IGROV-1 = tested on: IGROV-1
SK-MEL-2 = tested on: SK-MEL-2
M14 = tested on: M14

For COc1c(OC)c(OC)c2c(=O)c(OC)c(-c3ccc4c(c3)OCO4)oc2c1OC, the GI50 (RXF 393) was > 100 µM (inactive), the GI50 (OVCAR-5) was > 100 µM (inactive) and the GI50 (COLO 205) was > 100 µM (inactive). The GI50 (MOLT-4) was 39.7 µM (inactive), the GI50 (SK-MEL-28) was > 100 µM (inactive) and the GI50 (ACHN) was 68.7 µM (inactive). The GI50 (HOP-92) was 1.48 µM (inactive), the GI50 (UO-31) was 57.8 µM (inactive) and the GI50 (NCI-H460) was > 100 µM (inactive). The GI50 (MCF7) was > 100 µM (inactive), the GI50 (A549) was 53.2 µM (inactive) and the GI50 (SF-295) was > 100 µM (inactive). For the same compound, the GI50 (HCC 2998) was > 100 µM (inactive), the GI50 (MDA-MB-435) was 82.4 µM (inactive) and the GI50 (LOX IMVI) was > 100 µM (inactive). The GI50 (CAKI-1) was > 100 µM (inactive), the GI50 (A498) was 66.2 µM (inactive) and the GI50 (SF-268) was > 100 µM (inactive). The GI50 (HCT-15) was 78.5 µM, the GI50 (K562) was 64.7 µM (inactive) and the GI50 (SW-620) was > 100 µM (inactive). For the same compound, the GI50 (U-251) was > 100 µM (inactive), the GI50 (SF-539) was > 100 µM (inactive) and the GI50 (SK-MEL-5) was 44.8 µM (inactive). For the same compound, the GI50 (NCI-H23) was > 100 µM (inactive), the GI50 (PC-3) was 69.2 µM (inactive) and the GI50 (OVCAR-4) was > 100 µM (inactive). The GI50 (KM12) was > 100 µM (inactive), the GI50 (Malme-3M) was > 100 µM (inactive) and the GI50 (BT-549) was > 100 µM (inactive). For the same compound, the GI50 (HOP-62) was > 100 µM (inactive), the GI50 (CCRF-CEM) was 23.8 µM (inactive) and the GI50 (NCI/ADR-RES) was 86.9 µM (inactive). For the same compound, the GI50 (Hs-578T) was > 100 µM (inactive), the GI50 (NCI-H522) was > 100 µM (inactive) and the GI50 (TK-10) was > 100 µM (inactive). For the same compound, the GI50 (HT-29) was > 100 µM (inactive), the GI50 (786-0) was > 100 µM (inactive) and the GI50 (SNB-19) was > 100 µM (inactive). The GI50 (EKVX) was 82.8 µM (inactive), the GI50 (SN12C) was > 100 µM (inactive) and the GI50 (SK-OV-3) was > 100 µM (inactive). For the same compound, the GI50 (SNB-75) was 65.3 µM (inactive), the GI50 (MDA-N) was > 100 µM (inactive) and the GI50 (OVCAR-8) was 61 µM (inactive). The GI50 (MDA-MB-231) was > 100 µM (inactive), the GI50 (UACC-62) was > 100 µM (inactive) and the GI50 (DU-145) was > 100 µM (inactive). The GI50 (HL-60) was 11.6 µM (inactive), the GI50 (NCI-H226) was > 100 µM (inactive) and the GI50 (HCT-116) was 86.7 µM (inactive). The GI50 (UACC-257) was > 100 µM (inactive), the GI50 (T47D) was 41.9 µM (inactive) and the GI50 (OVCAR-3) was > 100 µM (inactive). For the same compound, the GI50 (IGROV-1) was > 100 µM (inactive), the GI50 (SK-MEL-2) was > 100 µM (inactive) and the GI50 (M14) was > 100 µM (inactive).

For COC(=O)c1ccccc1C1CN=NC12Cc1cc3c(cc1C2=O)CCC3 (centres undefined), the GI50 (RXF 393) was > 100 µM (inactive), the GI50 (OVCAR-5) was > 100 µM (inactive) and the GI50 (COLO 205) was 41.9 µM (inactive). The GI50 (MOLT-4) was 35.5 µM (inactive), the GI50 (SK-MEL-28) was > 100 µM (inactive) and the GI50 (ACHN) was > 100 µM (inactive). The GI50 (HOP-92) was 30.7 µM (inactive), the GI50 (UO-31) was 50.5 µM (inactive) and the GI50 (NCI-H460) was 39.9 µM (inactive). The GI50 (MCF7) was 49.8 µM (inactive), the GI50 (A549) was 63.4 µM (inactive) and the GI50 (SF-295) was 54.2 µM (inactive). For the same compound, the GI50 (HCC 2998) was 47.1 µM (inactive), the GI50 (MDA-MB-435) was 44.5 µM (inactive) and the GI50 (LOX IMVI) was 26.9 µM (inactive). The GI50 (CAKI-1) was > 100 µM (inactive), the GI50 (A498) was > 100 µM (inactive) and the GI50 (SF-268) was 62.4 µM (inactive). For the same compound, the GI50 (HCT-15) was greater than 100 µM, the GI50 (K562) was 30.3 µM (inactive) and the GI50 (SW-620) was 67.6 µM (inactive). The GI50 (U-251) was 70.3 µM (inactive), the GI50 (SF-539) was > 100 µM (inactive) and the GI50 (SK-MEL-5) was 21.6 µM (inactive). For the same compound, the GI50 (NCI-H23) was 33.3 µM (inactive), the GI50 (PC-3) was 45.5 µM (inactive) and the GI50 (OVCAR-4) was 44.6 µM (inactive). The GI50 (KM12) was 32.1 µM (inactive), the GI50 (Malme-3M) was 95.9 µM (inactive) and the GI50 (BT-549) was > 100 µM (inactive). The GI50 (HOP-62) was > 100 µM (inactive), the GI50 (CCRF-CEM) was 29.2 µM (inactive) and the GI50 (NCI/ADR-RES) was 37.8 µM (inactive). For the same compound, the GI50 (Hs-578T) was > 100 µM (inactive), the GI50 (NCI-H522) was 32.9 µM (inactive) and the GI50 (TK-10) was > 100 µM (inactive). For the same compound, the GI50 (HT-29) was 87.5 µM (inactive), the GI50 (786-0) was > 100 µM (inactive) and the GI50 (SNB-19) was 57.5 µM (inactive). The GI50 (EKVX) was 74.5 µM (inactive), the GI50 (SN12C) was 92.9 µM (inactive) and the GI50 (SK-OV-3) was 86.9 µM (inactive). For the same compound, the GI50 (SNB-75) was 61.4 µM (inactive), the GI50 (MDA-N) was 40.7 µM (inactive) and the GI50 (OVCAR-8) was 48.2 µM (inactive). The GI50 (MDA-MB-231) was 40.1 µM (inactive), the GI50 (UACC-62) was 69.8 µM (inactive) and the GI50 (DU-145) was > 100 µM (inactive). For the same compound, the GI50 (HL-60) was 21.4 µM (inactive), the GI50 (NCI-H226) was 80 µM (inactive) and the GI50 (HCT-116) was 36.3 µM (inactive). For the same compound, the GI50 (UACC-257) was 40.6 µM (inactive), the GI50 (T47D) was 56.6 µM (inactive) and the GI50 (OVCAR-3) was 82.4 µM (inactive). The GI50 (IGROV-1) was > 100 µM (inactive), the GI50 (SK-MEL-2) was > 100 µM (inactive) and the GI50 (M14) was 49.4 µM (inactive).
